Paper PMC9785231, “Synthesis and Pharmacological Evaluation of Enantiopure N-Substituted Ortho-c Oxide-Bridged 5-Phenylmorphans” (Molecules, 2022)

Legend:
[1] = tested on: cloned human mu-opioid receptor; conditions: [35S]GTPγS functional assay; cited from earlier work
mu-opioid receptor (MOR) = conditions: N-substituted 5-phenylmorphans; read-out: affinity at MOR Ki; cited from earlier work
μ-opioid receptor (MOR) = biological target: T1, μ-opioid receptor (MOR) (Rattus norvegicus, UniProt P33535); assay: Opioid receptor binding, MOR ([3H]DAMGO), rat brain homogenate; conditions: [3H]DAMGO, whole rat brains excluding cerebellum; read-out: MOR Binding (Ki ± SEM)
T1 construct: All assay tubes contained 100 μL homogenate suspension; from tissue; host or cells: whole rat brain excluding cerebellum, membrane homogenate

κ-opioid receptor (KOR) = biological target: T2, κ-opioid receptor (KOR) (Rattus norvegicus, UniProt P34975); assay: Opioid receptor binding, KOR ([3H]U69,593), rat brain homogenate; conditions: for Ki: [3H]U69,593, whole rat brains excluding cerebellum, read-out: KOR Binding (Ki ± SEM); for fold lower affinity at KOR than at MOR: from Ki of Table 1
T2 construct: All assay tubes contained 100 μL homogenate suspension; from tissue; host or cells: whole rat brain excluding cerebellum, membrane homogenate

CYP1A2 = biological target: T3, CYP1A2 (Homo sapiens, UniProt P05177); assay: P450 inhibition, human liver microsomal CYP1A2; conditions: microsomes
T3 sequence (P05177 1-516): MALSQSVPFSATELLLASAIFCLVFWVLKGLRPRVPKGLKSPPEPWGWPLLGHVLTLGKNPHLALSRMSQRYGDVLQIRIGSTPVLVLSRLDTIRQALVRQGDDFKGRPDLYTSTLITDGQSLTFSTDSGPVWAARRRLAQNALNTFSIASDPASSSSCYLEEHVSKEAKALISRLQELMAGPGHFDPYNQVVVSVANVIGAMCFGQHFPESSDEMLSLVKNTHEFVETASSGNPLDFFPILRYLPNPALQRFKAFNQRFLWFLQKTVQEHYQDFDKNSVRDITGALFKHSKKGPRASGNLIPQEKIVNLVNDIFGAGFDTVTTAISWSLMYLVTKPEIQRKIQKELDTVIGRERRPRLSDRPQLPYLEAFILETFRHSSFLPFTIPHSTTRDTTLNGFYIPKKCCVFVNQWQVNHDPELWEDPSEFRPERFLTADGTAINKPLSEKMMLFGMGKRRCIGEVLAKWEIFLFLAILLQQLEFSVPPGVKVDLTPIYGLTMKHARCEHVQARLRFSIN

CYP2C9 = CYP2C9 (Homo sapiens, UniProt P11712); assay: P450 inhibition, human liver microsomal CYP2C9; conditions: microsomes
[2] = biological target: T4, human κ-opioid receptor (OPRK1) (Homo sapiens, UniProt P41145); assay: Forskolin-induced cAMP accumulation assay, KOR agonist mode
CYP2D6 = biological target: T5, CYP2D6 (Homo sapiens, UniProt P10635); assay: P450 inhibition, human liver microsomal CYP2D6; type: in vitro ADME
T5 construct: selected human liver microsomal cytochrome P450 isozymes (CYP1A2, CYP2C9, CYP2C19, CYP2D6, and CYP3A); from tissue; host or cells: human liver microsomes

[3] = biological target: T4, human κ-opioid receptor (OPRK1); assay: Forskolin-induced cAMP accumulation assay, KOR antagonist mode; conditions: for KOR Antagonist %Imax ± SEM: versus EC90 of U50488H, normalized to nor-BNI
[4] = Microsomal metabolic stability, mouse liver microsomes; conditions: for Remaining (NCF = 60 min): MLM 0.5, no co-factor (no NADPH); for Remaining (T = 60 min): MLM 0.5, with NADPH
[5] = biological target: T6, human δ-opioid receptor (OPRD1) (Homo sapiens, UniProt P41143); assay: Forskolin-induced cAMP accumulation assay, DOR agonist mode
[6] = biological target: T6, human δ-opioid receptor (OPRD1); conditions: versus EC50 of SNC80; normalized to naltrexone
in vitro [7] = conditions: human, microsomes
in vitro [8] = conditions: mouse, microsomes
[9] = biological target: T6, human δ-opioid receptor (OPRD1); assay: cell-based
CYP2C19 = CYP2C19 (Homo sapiens, UniProt P33261); assay: in vitro; conditions: microsomes
CYP3A = assay: P450 inhibition, human liver microsomal CYP3A; type: in vitro ADME; conditions: human liver microsomes, read-out: 3A %Inhibition
[10] = Microsomal metabolic stability, human liver microsomes
δ-opioid receptor (DOR) = biological target: T7, δ-opioid receptor (DOR) (Rattus norvegicus, UniProt P33533); assay: Opioid receptor binding, DOR ([3H]DADLE), rat brain homogenate; conditions: for Ki: [3H]DADLE, whole rat brains excluding cerebellum, read-out: DOR Binding (Ki ± SEM); for fold lower affinity at DOR than at MOR: from Ki of Table 1
T7 construct: All assay tubes contained 100 μL homogenate suspension; from tissue; host or cells: whole rat brain excluding cerebellum, membrane homogenate

[11] = forskolin-induced cAMP accumulation assay

T4 sequence (P41145 whole entry): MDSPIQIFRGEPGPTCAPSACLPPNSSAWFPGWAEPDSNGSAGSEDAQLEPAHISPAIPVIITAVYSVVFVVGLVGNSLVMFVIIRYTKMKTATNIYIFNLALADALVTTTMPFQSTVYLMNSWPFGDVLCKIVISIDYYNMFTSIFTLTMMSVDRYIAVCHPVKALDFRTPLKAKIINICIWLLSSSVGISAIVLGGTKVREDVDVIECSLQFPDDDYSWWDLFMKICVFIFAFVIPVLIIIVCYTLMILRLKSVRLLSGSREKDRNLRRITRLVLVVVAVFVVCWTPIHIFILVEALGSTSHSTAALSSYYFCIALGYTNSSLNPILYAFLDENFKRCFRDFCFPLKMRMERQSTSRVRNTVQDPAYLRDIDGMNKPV
T2 sequence (P34975 whole entry): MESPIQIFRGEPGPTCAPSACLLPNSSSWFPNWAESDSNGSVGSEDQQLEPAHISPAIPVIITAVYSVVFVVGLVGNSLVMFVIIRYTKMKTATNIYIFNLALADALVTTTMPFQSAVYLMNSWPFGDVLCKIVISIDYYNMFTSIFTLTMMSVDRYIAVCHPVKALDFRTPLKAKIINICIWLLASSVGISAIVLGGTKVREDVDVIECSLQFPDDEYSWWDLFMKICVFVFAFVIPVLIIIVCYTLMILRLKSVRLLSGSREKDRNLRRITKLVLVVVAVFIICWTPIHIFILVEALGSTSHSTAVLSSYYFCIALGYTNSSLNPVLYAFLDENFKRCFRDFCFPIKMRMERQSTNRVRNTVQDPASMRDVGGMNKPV
T6 sequence (P41143 whole entry): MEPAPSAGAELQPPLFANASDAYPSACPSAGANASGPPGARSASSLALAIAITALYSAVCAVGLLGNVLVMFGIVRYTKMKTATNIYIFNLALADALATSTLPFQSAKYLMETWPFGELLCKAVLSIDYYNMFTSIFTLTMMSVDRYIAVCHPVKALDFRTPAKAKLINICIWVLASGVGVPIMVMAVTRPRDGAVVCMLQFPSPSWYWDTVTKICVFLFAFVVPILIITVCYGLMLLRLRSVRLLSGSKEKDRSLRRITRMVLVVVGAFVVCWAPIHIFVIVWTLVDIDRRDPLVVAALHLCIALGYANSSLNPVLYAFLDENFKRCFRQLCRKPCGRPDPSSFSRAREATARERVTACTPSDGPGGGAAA
T7 sequence (P33533 whole entry): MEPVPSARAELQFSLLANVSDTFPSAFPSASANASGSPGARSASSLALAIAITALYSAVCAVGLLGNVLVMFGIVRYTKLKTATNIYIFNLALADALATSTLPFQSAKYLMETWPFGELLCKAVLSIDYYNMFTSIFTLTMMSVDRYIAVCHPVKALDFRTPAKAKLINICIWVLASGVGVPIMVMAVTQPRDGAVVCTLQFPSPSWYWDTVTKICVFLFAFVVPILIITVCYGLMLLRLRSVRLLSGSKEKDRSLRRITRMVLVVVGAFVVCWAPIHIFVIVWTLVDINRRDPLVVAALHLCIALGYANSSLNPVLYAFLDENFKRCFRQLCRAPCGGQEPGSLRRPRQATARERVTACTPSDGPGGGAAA
CYP2C9, sequence (P11712 whole entry): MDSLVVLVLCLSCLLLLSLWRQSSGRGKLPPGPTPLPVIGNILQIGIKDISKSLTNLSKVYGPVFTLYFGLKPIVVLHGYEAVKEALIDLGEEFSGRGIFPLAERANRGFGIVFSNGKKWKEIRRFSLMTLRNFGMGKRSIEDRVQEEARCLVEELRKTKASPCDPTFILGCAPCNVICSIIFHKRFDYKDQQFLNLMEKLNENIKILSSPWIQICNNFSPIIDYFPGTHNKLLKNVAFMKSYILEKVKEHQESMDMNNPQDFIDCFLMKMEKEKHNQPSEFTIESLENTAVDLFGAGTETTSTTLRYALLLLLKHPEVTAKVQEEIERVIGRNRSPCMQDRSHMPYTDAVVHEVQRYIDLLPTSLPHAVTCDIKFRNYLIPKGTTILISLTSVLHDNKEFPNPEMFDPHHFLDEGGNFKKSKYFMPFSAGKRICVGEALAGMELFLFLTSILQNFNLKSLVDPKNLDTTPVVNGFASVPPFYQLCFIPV
T1 sequence (P33535 whole entry): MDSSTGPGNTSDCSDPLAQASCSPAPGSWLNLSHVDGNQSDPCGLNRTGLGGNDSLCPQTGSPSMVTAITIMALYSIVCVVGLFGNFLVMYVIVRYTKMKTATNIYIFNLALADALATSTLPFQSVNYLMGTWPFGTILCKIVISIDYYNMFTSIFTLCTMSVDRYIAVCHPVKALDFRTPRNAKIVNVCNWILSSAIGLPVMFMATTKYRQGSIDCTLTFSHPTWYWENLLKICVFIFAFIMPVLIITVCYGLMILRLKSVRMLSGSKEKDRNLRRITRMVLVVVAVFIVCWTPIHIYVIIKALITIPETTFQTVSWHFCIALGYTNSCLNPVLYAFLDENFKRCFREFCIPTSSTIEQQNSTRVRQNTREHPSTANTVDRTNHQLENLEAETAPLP
CYP2C19, sequence (P33261 whole entry): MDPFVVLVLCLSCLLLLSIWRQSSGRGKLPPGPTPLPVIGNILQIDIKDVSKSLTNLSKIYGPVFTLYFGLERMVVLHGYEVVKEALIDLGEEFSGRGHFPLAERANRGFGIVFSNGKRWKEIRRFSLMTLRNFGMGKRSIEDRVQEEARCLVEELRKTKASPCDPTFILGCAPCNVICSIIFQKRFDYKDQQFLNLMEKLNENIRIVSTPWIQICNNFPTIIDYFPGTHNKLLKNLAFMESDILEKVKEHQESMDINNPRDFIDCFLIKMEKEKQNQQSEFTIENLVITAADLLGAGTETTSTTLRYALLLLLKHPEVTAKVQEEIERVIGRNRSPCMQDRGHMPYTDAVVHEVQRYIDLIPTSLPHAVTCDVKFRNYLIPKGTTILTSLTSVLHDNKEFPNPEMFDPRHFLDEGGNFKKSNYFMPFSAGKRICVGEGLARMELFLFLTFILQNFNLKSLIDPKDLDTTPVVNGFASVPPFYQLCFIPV
T5 sequence (P10635 whole entry): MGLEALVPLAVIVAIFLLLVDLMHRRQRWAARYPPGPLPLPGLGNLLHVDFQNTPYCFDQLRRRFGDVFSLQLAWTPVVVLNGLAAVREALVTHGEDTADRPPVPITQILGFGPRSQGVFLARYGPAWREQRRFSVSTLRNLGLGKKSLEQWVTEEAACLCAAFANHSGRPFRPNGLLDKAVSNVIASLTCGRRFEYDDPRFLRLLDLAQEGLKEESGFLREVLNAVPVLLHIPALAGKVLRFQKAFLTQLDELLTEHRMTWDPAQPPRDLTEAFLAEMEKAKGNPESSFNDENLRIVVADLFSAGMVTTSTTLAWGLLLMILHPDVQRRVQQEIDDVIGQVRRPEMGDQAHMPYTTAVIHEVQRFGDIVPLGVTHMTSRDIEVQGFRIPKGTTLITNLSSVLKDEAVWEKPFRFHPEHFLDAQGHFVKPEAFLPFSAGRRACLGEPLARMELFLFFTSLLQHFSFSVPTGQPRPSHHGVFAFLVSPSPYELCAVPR

For `Oc1cccc(C23CCCC(C2)N(CC2CC2c2ccccc2)CC3)c1` (single isomer, unassigned; (-)) [(-)-3], the “mu-opioid antagonist activity Ke” value [1] is listed as 0.3 nM and the Ki (mu-opioid receptor (MOR)) is listed as 4 nM.

In the case of `Oc1cccc2c1O[C@H]1CN(C[C@H]3C[C@@H]3c3ccccc3)[C@H]3CCC[C@@]21C3` [(+)-17, (3S,6aR,11aR)-2-(((1S,2S)-2-Phenylcyclopropyl)methyl)-1,3,4,5,6,11a-hexahydro-2H-3,6a-methanobenzofuro[2,3-c]azocin-10-ol], the Ki (μ-opioid receptor (MOR)) is reported as 11.9 ± 1.6 nM, the Ki (κ-opioid receptor (KOR)) is reported as 100 ± 10 nM and the “fold lower affinity at KOR than at MOR” value (κ-opioid receptor (KOR)) is reported as “about 10 fold”. The inhibition at 10 µM (CYP1A2) was 6.8%, the inhibition at 10 µM (CYP2C9) was 36.6% and the EC50 [2] was over 10000 nM. For the same molecule, the “functional agonist activity at KOR” value [2, 11] was “did not have functional agonist activity”, the “2D6 %Inhibition” value (CYP2D6; 10 µM) was 66.8% and the inhibition at 10 µM (CYP2D6; human, human liver microsomes, read-out: 2D6 %Inhibition) was over 50%. The IC50 [3] was 206 ± 63.2 nM, the “KOR Antagonist %Imax ± SEM” value [3] was 106.1 ± 5.5% and the “Remaining (NCF = 60 min)” value [4] was 94.4%. The “Remaining (T = 60 min)” value [4] was 0.2%, the EC50 [5] was over 10000 nM and the “functional agonist activity at DOR” value [5, 11] was “did not have functional agonist activity”. For the same molecule, the “DOR Antagonist %Imax ± SEM” value [6] was 160.9 ± 4.0%, the CLint scaled (in vitro [7]) was 62 mL/min/kg and the half-life (in vitro [7]) was 20.1 min. For the same molecule, the microsomal CLint (in vitro [7]) was 68.9 µL/min/mg, the CLint scaled (in vitro [8]) was 801 mL/min/kg and the half-life (in vitro [8]) was 6.9 min. For the same molecule, the microsomal CLint (in vitro [8]) was 202 µL/min/mg, the IC50 [9] was 487 ± 157 nM and the inhibition at 10 µM (CYP2C19) was 46.6%. The inhibition at 10 µM (CYP3A) was 24.7%, the “Remaining (NCF = 60 min)” value ([10]; HLM 0.5, no co-factor (no NADPH)) was 98.5% and the “Remaining (T = 60 min)” value ([10]; HLM 0.5, with NADPH) was 13.0%. The Ki (δ-opioid receptor (DOR)) was 49.4 ± 5.1 nM and the “fold lower affinity at DOR than at MOR” value (δ-opioid receptor (DOR)) was “approximately 4 fold”.

In the case of `Oc1cccc2c1O[C@H]1CN(CCc3ccccc3)[C@H]3CCC[C@@]21C3` [(-)-1, (3S,6aR,11aR)-2-Phenethyl-1,3,4,5,6,11a-hexahydro-2H-3,6a-methano-benzofuro[2,3-c]azocin-10-ol], the Ki (μ-opioid receptor (MOR)) is reported as 1.11 ± 0.15 nM, the Ki (κ-opioid receptor (KOR)) is reported as 13 ± 1.2 nM and the “fold lower affinity at KOR than at MOR” value (κ-opioid receptor (KOR)) is reported as “about 10 fold”. The EC50 [2] was over 10000 nM, the IC50 [3] was 102 ± 65.8 nM and the “KOR Antagonist %Imax ± SEM” value [3] was 109.3 ± 8.1%. For the same molecule, the EC50 [5] was over 10000 nM, the “DOR Antagonist %Imax ± SEM” value [6] was 86.5 ± 6.4% and the IC50 [9] was 409 ± 138 nM. The Ki (δ-opioid receptor (DOR)) was 34.8 ± 4.4 nM and the “fold lower affinity at DOR than at MOR” value (δ-opioid receptor (DOR)) was “approximately 30 fold”.

For `CC(=O)N1CCN(c2ccc(OCC3COC(Cn4ccnc4)(c4ccc(Cl)cc4Cl)O3)cc2)CC1` (centres unmarked) [Ketoconazole, reference compound], the inhibition at 10 µM (CYP3A) was 98.8%.

With `O=C1CC[C@@]2(O)[C@H]3Cc4ccc(O)c5c4[C@@]2(CCN3CC2CC2)[C@H]1O5` [Naltrexone] the inhibition at 10 µM (CYP2C9) was 0%, the “Remaining (NCF = 60 min)” value [4] was 84.3% and the “Remaining (T = 60 min)” value [4] was 48.1%. The inhibition at 10 µM (CYP2C19) was 0%, the “Remaining (NCF = 60 min)” value ([10]; human, microsomes, 1 h) was 99.8% and the “Remaining (T = 60 min)” value ([10]; human, microsomes, 1 h) was 97.1%.

`O=c1cc(-c2ccccc2)oc2c1ccc1ccccc12` [α-Naphthoflavone, reference compound] gave an inhibition at 10 µM (CYP1A2) of 88.3%.
